Literature values, collected in US20260232672A1, “COMPOSITIONS AND METHODS OF TREATING FEMALE SEXUAL DYSFUNCTION AND FEMALE SEXUAL AROUSAL DISORDER” (Daré Bioscience, Inc., priority 2023, published 2026).

Test system: pre- and postmenopausal women afflicted with broad-spectrum FSD
Conditions: oral

## CCCc1nn(C)c2c(=O)[nH]c(-c3cc(S(=O)(=O)N4CCN(C)CC4)ccc3OCC)nc12.O=C(O)CC(O)(CC(=O)O)C(=O)O [oral sildenafil citrate, 1-[4-ethoxy-3-(6,7-dihydro-1-methyl-7-oxo-3-propyl-1H-pyrazolo[4,3-d]pyrimidin-5-yl)phenylsulfonyl]-4-methylpiperazine citrate salt]
Doses 25 mg-100 mg, previous clinical trials in women
  rates of side effects: high rates of side effects
Published placebo-controlled trials
  efficacy versus placebo: marginal efficacy versus placebo
